Measured values from patent US20100172836A1, “SYNTHESIS OF 18F-RADIOLABELED STYRYLPYRIDINES FROM TOSYLATE PRECURSORS AND STABLE PHARMACEUTICAL COMPOSITIONS THEREOF” (AVID RADIOPHARMACEUTICALS, INC., priority 2008, published 2010).
Converted amounts (≈) assume the structure as drawn.

Key:
Assay type in all cases: physicochemical
[1] = Extended stability of ^18F-AV-45 Injection formulated with sodium ascorbate at 0.5% (% RCP)
Procedure: (§1) The ^18F-AV-45 radiopharmaceutical compositions of embodiments of the invention are remarkably stable to radiolysis or chemical degradation. Sodium ascorbate is used to minimize radiolysis during the purification of ^18F-AV-45 and in the final drug product solution to increase stability and shelf life. Ethanol at 1-10% (v/v) in aqueous solution aids in the solubilization of ^18F-AV-45. […] The compositions were analyzed at end-of-synthesis (EOS) using reverse HPLC, equipped with both an ultra violet (UV) detector and radiochemical detector. The radiochemical purity of ^18F-AV-45 was monitored by HPLC with radiometric detection and the purity of ^19F-AV-45 was monitored by HPLC UV detection in the drug product by Area Percent Normalization.
As noted, the radiochemical purity of the ^18F compound is maintained for up to approximately 20 hours after production.

[2] = Stability of ^18F-AV-45 drug product in vials, upright and inverted, at ambient, 40° C. and 50° C. over 12 hours; conditions: three lots
Procedure: The stability of the drug product was evaluated on three separate manufacturing lots of ^18F-AV-45. Vials were stored upright and inverted at ambient and 40° C. temperatures, and upright at 50° C. Drug product was sampled at the specified intervals over a 12 hour testing period and evaluated for radiochemical purity and strength.

[3] = Radiochemical purity of ^18F-AV-45 Injection with and without sodium ascorbate (HPLC with radiometric detection)
Procedure: as §1, with “Normalization. At EOS, the radiochemical purity of the ^18F-AV-45 composition prepared without sodium ascorbate was 84% and decomposed further such that at 2 hours the purity was 80%. […] At EOS, the purity was 96% with negligible decomposition at 2 hours post EOS (purity of 95%).” for “Normalization.”

[4] = Solubility of AV-45 in the drug product composition (visual inspection, HPLC after centrifugation)
Procedure: The ^18F-AV-45 radiopharmaceutical formulation/composition was evaluated for the solubility of the non-radioactive ^19F-AV-45, which is also formed in quantities of 1-5 μg/mL during the radiosynthesis of ^18F-AV-45 due to the presence of small quantities of ^19F-fluoride from tubing, valves and other sources in the radiosynthesis system. In the absence of ethanol in the composition, particulate matter may be observed due to the low solubility of ^19F-AV-45. The addition of 10% ethanol to the radiopharmaceutical composition was, therefore, evaluated to determine if the solubility of ^19F-AV-45 was sufficient to avoid the potential of precipitate formation. […] A visible precipitate was noticeable in solutions with concentrations ≧22 μg/mL. Samples prepared at concentrations ≦20 μg/mL were evaluated by HPLC analysis following centrifugation. Samples with ≦20 μg/mL were also tested after storage for one week at ambient temperature.

[5] = UV purity of ^19F-AV-45 in ^18F-AV-45 Injection (HPLC UV detection at 350 nm, area percent)
Procedure: as §1

[6] = lot AV4520080304, manufactured without sodium ascorbate (444 MBq/mL), EOS
[7] = lot AV4520080603, manufactured with sodium ascorbate (1036 MBq/mL), EOS

Row | Structure (SMILES) | time after production for which radiochemical purity is maintained ([1]; approximately 10% (v/v) ethanol in normal saline containing 0.5% (w/v) sodium ascorbate) | RCP (stability maintained) ([1]; composition comprising ethyl alcohol and sodium ascorbate, up to 20 hours post-production) | RCP over 12 hours ([2]; 10% (v/v) ethanol in normal saline, 0.5% (w/v) sodium ascorbate, vials upright and inverted at ambient and 40° C., upright at 50° C.) | drift of the drug product strength ([2]; over 12 hours, all temperatures tested (ambient, 40° C., 50° C.)) [%] | % ^18F AV-45 Purity (radiochemical) ([3]; lot AV4520080304, manufactured without sodium ascorbate (444 MBq/mL), 2-hour post EOS) [%] | % ^18F AV-45 Purity (radiochemical) ([3]; lot AV4520080304, manufactured without sodium ascorbate (444 MBq/mL), 2-hour post EOS, listed as 18F AV-45) [%] | % ^18F AV-45 Purity (radiochemical) [3, 6] [%] | % ^18F AV-45 Purity (radiochemical) ([3]; lot AV4520080304, manufactured without sodium ascorbate (444 MBq/mL), EOS, listed as 18F AV-45) [%] | % ^18F AV-45 Purity (radiochemical) ([3]; lot AV4520080603, manufactured with sodium ascorbate (1036 MBq/mL), 2-hour post EOS) [%] | % ^18F AV-45 Purity (radiochemical) ([3]; lot AV4520080603, manufactured with sodium ascorbate (1036 MBq/mL), 2-hour post EOS, listed as 18F AV-45) [%] | % ^18F AV-45 Purity (radiochemical) [3, 7] [%] | % ^18F AV-45 Purity (radiochemical) ([3]; lot AV4520080603, manufactured with sodium ascorbate (1036 MBq/mL), EOS, listed as 18F AV-45) [%] | solubility limit ([4]; 10% (v/v) EtOH and 0.5% (w/v) sodium ascorbate in 0.9% aqueous sodium chloride, ambient temperature) [µg/mL] | concentrations at which a visible precipitate was noticeable ([4]; drug product composition (10% EtOH, 0.5% sodium ascorbate, 0.9% NaCl)) [ng/mL] | change in concentration after one week of storage ([4]; samples ≦20 μg/mL, ambient temperature, HPLC) | UV purity by area percent at 350 nm ([5]; lot AV4520080304, manufactured without sodium ascorbate (444 MBq/mL), 2-h post EOS) [%] | UV purity by area percent at 350 nm [5, 6] [%] | UV purity by area percent at 350 nm ([5]; lot AV4520080603, manufactured with sodium ascorbate (1036 MBq/mL), 2-h post EOS) [%] | UV purity by area percent at 350 nm [5, 7] [%]
1 | CNc1ccc(/C=C/c2ccc(OCCOCCOCC[18F])nc2)cc1 [^18F-AV-45, (E)-4-(2-(6-(2-(2-(2-[^18F]fluoroethoxy)ethoxy)ethoxy)pyridin-3-yl)vinyl)-N-methylbenzenamine] | approximately 20 hours | greater than 90% | constant | < 5 | 80 | 80 | 84 | 84 | 95 | 95 | 96 | 96 | – | – | – | – | – | – | –
2 | CNc1ccc(/C=C/c2ccc(OCCOCCOCCF)nc2)cc1 [^19F-AV-45] | – | – | – | – | – | – | – | – | – | – | – | – | 17 (≈ 47.2 µM) | ≥ 22000 | no change in concentration | 76 | 83 | 100 | 100
